Values of other authors in patent US20220154222A1, “NOVEL NUCLEIC ACID MODIFIERS” (THE BROAD INSTITUTE, INC., priority 2019, published 2022).

Tested on: Factor VII gene silencing in hepatocytes
Details: LNP siRNA systems containing the ionizable cationic lipid; hepatocytes in vivo

Compound | gene silencing potency, rank order of the series
1,2-dilinoleyloxy-keto-N,N-dimethyl-3-aminopropane [DLinKDMA] | DLinKC2-DMA>DLinKDMA>DLinDMA>>DLinDAP
CCCCC/C=C\C/C=C\CCCCCCCC(=O)OCC(CN(C)C)OC(=O)CCCCCCC/C=C\C/C=C\CCCCC (stereo not shown) [DLinDAP, 1,2-dilineoyl-3-dimethylammonium-propane] | DLinKC2-DMA>DLinKDMA>DLinDMA>>DLinDAP
CCCCC/C=C\C/C=C\CCCCCCCCOCC(CN(C)C)OCCCCCCCC/C=C\C/C=C\CCCCC (stereo not shown) [DLinDMA, 1,2-dilinoleyloxy-3-N,N-dimethylaminopropane] | DLinKC2-DMA>DLinKDMA>DLinDMA>>DLinDAP
CCCCC/C=C\C/C=C\CCCCCCCCC1(CCCCCCCC/C=C\C/C=C\CCCCC)OCC(CCN(C)C)O1 (stereo not shown) [DLinKC2-DMA, 1,2-dilinoleyl-4-(2-dimethylaminoethyl)-[1,3]-dioxolane] | DLinKC2-DMA>DLinKDMA>DLinDMA>>DLinDAP
